Data taken from patent US8470805B2, “Processes for preparing piperazinium salts of KMUP and use thereof” (Kaohsiung Medical University, priority 2009, dated 2013).

Columns and labels:
[1] = tested on: C57BL/6J mice; assay: The lipid-lowering effect in C57BL/6J mice (high-fat diet); assay type: in vivo; settings: HFD, after 21 days
Method: (§1) 8-week C57BL/6J mice are divided into standard diet (STD) group and the high-fat diet (HFD) group. In the HFD group, the KMUP-1 HCl salt (1, 2.5 and 5 mg/kg), the simvastatin (5 mg/kg), the KMUP-1-Nicotinic acid complex (1 and 5 mg/kg), the KMUP-1-Simvastatinic acid complex (1 and 5 mg/kg), KMUP-1-Gemfibrozil complex (2.5 mg/kg), KMUP-1-Fibric acid complex (2.5 mg/kg), KMUP-1-γ-polyglutamic acid complex (2.5 mg/kg) and KMUP-1-Citric acid complex (2.5 mg/kg) are administered orally. After 21 days, the amounts (mg/dl) of the triglyceride (TG), the total cholesterol (tot.-C), the high density lipoprotein cholesterol (HDL-C), the low density lipoprotein cholesterol (LDL-C) and the serum glucose of six mice for each group are measured as shown in Tables 2 and 3.

[2] = tested on: STZ-induced diabetic rats; assay: Change of insulin and fasting blood glucose after administration, STZ-induced diabetic rats; assay type: in vivo; settings: 4 mg/kg
Method: Nateglinide, repaglinide or the placebo is administered on day 1 before one hour of the breakfast, and the KMUP-1/KMUP-1-Nateglinide or KMUP-1-Repaglinide are orally administered at 1, 2, 3, 4, 5 and 6 hrs respectively. The amount of the serum glucose (mg/dl), the amount of the serum insulin (mg/dl), the body weight (g) and the change of the body weight are measured.

[3] = tested on: TGF-β; assay: Bleomycin-induced lung fibrosis in mice, TGF-β expression by EIA; assay type: in vivo; settings: bleomycin 60 mg/kg
Method: 6. KMUP-1 salts inhibit the lung fibrosis in mice induced by bleomycin (BM) mediated via transforming growth factor beta (TGF-β) expression in lung The increased amount of the synthetic collagen and the generation of the macrophage in alveolus may facilitate the formulation of TGF-β, and the expression of TGF-β is looked as a biomarker of the lung fibrosis. […] The state of the TGF-β expression in the irrigation solution is measured by the enzyme immunoassay (EIA).

[4] = tested on: RAW 264.7 cells; assay: Inhibition of RANKL-induced osteoclast differentiation (TRAP staining); assay type: cell-based; settings: 5 μM, 5 days; for TRAP-Positive Cells: RANKL 10 μg/ml, n=5
[5] = tested on: U46619-induced platelet aggregation; assay: Antiplatelet aggregation activity (U46619-induced, turbidity, Lumi-aggregometer); assay type: cell-based; settings: 20 μM, rabbit platelets, n=8
Method: 4. […] After centrifuging at […] for 10 mins, the supernatant is platelet-rich plasma (PRP). The platelet suspension is obtained from EDTA-anticoagulated PRP, and the platelet granules are finally suspended in the Tyrode's solution. […] The turbidity is measured at 37° C. by Lumi-aggregometer connected with two dual channel recorders as the aggregation.

[6] = tested on: C57BL/6J mice; assay: The amount of the serum glucose and insulin in C57BL/6J mice (high-fat diet); assay type: in vivo; design: The amount of serum insulin: unit not given here; settings: 1 mg/kg orally, HFD, after 21 days
Method: as §1

[7] = tested on: testosterone-induced mice; assay: Prostate hypertrophy (BPH) in testosterone-induced mice; assay type: in vivo; settings: 2.5 mg/kg, testosterone 3 mg/kg/day for 4 weeks, day 28, n=6
Method: The testosterone (TS, 3 mg/kg/day) is administered for 4 weeks for inducing BPH in mice, which combines with KMUP-1 HCl salt (2.5 mg/kg), KMUP-1-Citric acid (2.5 mg/kg) and KMUP-1-Nicotinic acid (2.5 mg/kg), and the ratio of hypertrophy (g)/body weight (g) is measured at day 28 (n=6).

[8] = tested on: monocrotaline (MCT)-treated rats; assay: Pulmonary artery blood pressure in monocrotaline (MCT)-treated rats; assay type: in vivo, male Wistar rats
Method: 5. the monocrotaline (MCT)-treated rats show the […] pulmonary aterial hypertension
Pulmonary aterial hypertension in MCT-treated rats is caused on day 21 after the intraperitoneal injection. Orally administered KMUP-1 HCl salt (2.5 mg/kg), simvastatin (2.5 mg/kg), KMUP-1-nicotinic acid complex (2.5 mg/kg), KMUP-1-Citric acid complex (2.5 mg/kg), KMUP-1-Simvastatinic acid complex (2.5 mg/kg) and KMUP-1-γ-Polyglutamic acid complex (2.5 mg/kg), or the inhalated KMUP-1-PGI2 (0.1 mM) every day may inhibit the male Wistar rats treated with MCT, which show the effect of decreasing the pulmonary artery blood pressure (PABP).

[9] = tested on: H1N1 virus; assay type: cell-based; settings: MDCK culture infected with H1N1 virus; for IC50: n=6
[10] = tested on: STZ-induced diabetic rats; assay: Serum glucose and body weight in streptozosin (STZ)-induced diabetic rats; assay type: in vivo; settings: 5 mg/kg orally, after 21 days
Method: 2. The effect of KMUP-1 on decreasing the amount of the serum glucose in streptozosin (STZ)-induced diabetic rats
60 mg/kg of streptozosin is injected intravenously for inducing the STZ-induced rats, and the KMUP-1 HCl salt (0.5, 1.5, 2.5 and 5 mg/kg) and KMUP-1-Simvastatinic acid (5 mg/kg) are administered orally. After 21 days, the amount of the serum glucose (mg/dl), the amount of the serum insulin (mg/dl), the body weight (g) and the change of the body weight are measured.

Cc1ccc(C)c(OCCCC(C)(C)C(=O)O)c1.Cn1c(=O)c2c(ncn2CCN2CCN(c3ccccc3Cl)CC2)n(C)c1=O [KMUP-1-Gemfibrozil, KMUP-1-gemfibrozil complex]
HDL-C ([1]; 2.5 mg/kg orally): 98.7 ± 1.8 mg/dL
LDL-C ([1]; 2.5 mg/kg orally): 18.2 ± 1.8 mg/dL
TG ([1]; 2.5 mg/kg orally): 79.2 ± 4.6 mg/dL
tot.-C ([1]; 2.5 mg/kg orally): 130.7 ± 1.7 mg/dL

KMUP-1-Repaglinide Complex
The change of the fasting blood glucose after administration ([2]; 1 hr): 5.7 ± 0.8 mg/dL
The change of the insulin after administration ([2]; 1 hr): 39.5 ± 3.8 U/mL
The change of the fasting blood glucose after administration ([2]; 2 hr): 0.5 ± 0.2 mg/dL
The change of the insulin after administration ([2]; 2 hr): 47.3 ± 2.2 U/mL
The change of the insulin after administration ([2]; 3 hr): 27.4 ± 2.8 U/mL
The change of the insulin after administration ([2]; 4 hr): 14.8 ± 3.7 U/mL
The change of the fasting blood glucose after administration ([2]; 6 hr): -0.3 ± 0.1 mg/dL
The change of the insulin after administration ([2]; 6 hr): 2.8 ± 0.5 U/mL

CCC(C)(C)C(=O)O[C@H]1C[C@@H](C)C=C2C=C[C@H](C)[C@H](CC[C@@H]3C[C@@H](O)CC(=O)O3)[C@H]21 [Simvastatin, simvastatin, reference compound]
Changing % of the lung TGF-β ([3]; 5 mg/kg orally): 40 ± 4.3 %
TRAP-Positive Cells [4]: 85 ± 7
HDL-C ([1]; 5 mg/kg orally): 103.18 ± 2.5 mg/dL
LDL-C ([1]; 5 mg/kg orally): 15.3 ± 1.3 mg/dL
TG ([1]; 5 mg/kg orally): 82.67 ± 6.3 mg/dL
tot.-C ([1]; 5 mg/kg orally): 133.67 ± 4.3 mg/dL

COc1ccc2c(c1)c(CC(=O)O)c(C)n2C(=O)c1ccc(Cl)cc1 [Indomethacin, indomethacin, reference compound]
The ratio of the antiplatelet aggregation [5]: 87 ± 8.3 %

CCOc1cc(CC(=O)N[C@@H](CC(C)C)c2ccccc2N2CCCCC2)ccc1C(=O)O [Rep, Repaglinide, reference compound]
The change of the fasting blood glucose after administration ([2]; 1 hr): 3.2 ± 0.8 mg/dL
The change of the insulin after administration ([2]; 1 hr): 47.5 ± 3.7 U/mL
The change of the fasting blood glucose after administration ([2]; 2 hr): 0.6 ± 0.1 mg/dL
The change of the insulin after administration ([2]; 2 hr): 49.3 ± 3.4 U/mL
The change of the insulin after administration ([2]; 3 hr): 24.4 ± 4.6 U/mL
The change of the insulin after administration ([2]; 4 hr): 19.8 ± 3.6 U/mL
The change of the fasting blood glucose after administration ([2]; 6 hr): -0.1 ± 0.4 mg/dL
The change of the insulin after administration ([2]; 6 hr): 4.8 ± 0.4 U/mL

CC(C)[C@H]1CC[C@H](C(=O)N[C@H](Cc2ccccc2)C(=O)O)CC1.Cn1c(=O)c2c(ncn2CCN2CCN(c3ccccc3Cl)CC2)n(C)c1=O [KMUP-1-Nat, KMUP-1-Nateglinide Complex]
The change of the fasting blood glucose after administration ([2]; 1 hr): 4.67 ± 0.7 mg/dL
The change of the insulin after administration ([2]; 1 hr): 38 ± 2.7 U/mL
The change of the fasting blood glucose after administration ([2]; 2 hr): 0.8 ± 0.4 mg/dL
The change of the insulin after administration ([2]; 2 hr): 51.3 ± 4.3 U/mL
The change of the insulin after administration ([2]; 3 hr): 31.8 ± 3.7 U/mL
The change of the insulin after administration ([2]; 4 hr): 21.8 ± 5.3 U/mL
The change of the fasting blood glucose after administration ([2]; 6 hr): -0.2 ± 0.3 mg/dL
The change of the insulin after administration ([2]; 6 hr): 3.4 ± 0.6 U/mL

CC(C)[C@H]1CC[C@H](C(=O)N[C@H](Cc2ccccc2)C(=O)O)CC1 [Nat, Nateglinide, reference compound]
The change of the fasting blood glucose after administration ([2]; 1 hr): 4.7 ± 0.6 mg/dL
The change of the insulin after administration ([2]; 1 hr): 42.5 ± 4.2 U/mL
The change of the fasting blood glucose after administration ([2]; 2 hr): 0.3 ± 0.2 mg/dL
The change of the insulin after administration ([2]; 2 hr): 49.3 ± 3.4 U/mL
The change of the insulin after administration ([2]; 3 hr): 24.4 ± 4.6 U/mL
The change of the insulin after administration ([2]; 4 hr): 17.8 ± 2.8 U/mL
The change of the fasting blood glucose after administration ([2]; 6 hr): -0.2 ± 0.3 mg/dL
The change of the insulin after administration ([2]; 6 hr): 4.4 ± 0.6 U/mL

Cn1c(=O)c2c(ncn2CCN2CCN(c3ccccc3Cl)CC2)n(C)c1=O.O=C(O)c1cccnc1 [KMUP-1-Nicotinic acid, KMUP-1-Nicotinic acid salt]
The amount of serum glucose [6]: 123.5 ± 2.5 mg/dL
hypertrophy (g)/body weight (g) [7]: 0.19 ± 0.07
Changing % of the lung TGF-β ([3]; 2.5 mg/kg orally): 42 ± 3.8 %
PABP ([8]; 2.5 mg/kg/day p.o.): 12 ± 2.6 mmHg
HDL-C ([1]; 5 mg/kg orally): 97.98 ± 3.4 mg/dL
LDL-C ([1]; 5 mg/kg orally): 13.8 ± 1.2 mg/dL
TG ([1]; 5 mg/kg orally): 80.75 ± 7.9 mg/dL
tot.-C ([1]; 5 mg/kg orally): 130 ± 4.1 mg/dL

CC[C@H](C)C(=O)O[C@H]1C[C@H](O)C=C2C=C[C@H](C)[C@H](CC[C@@H](O)C[C@@H](O)CC(=O)O)[C@H]21.Cn1c(=O)c2c(ncn2CCN2CCN(c3ccccc3Cl)CC2)n(C)c1=O [KMUP-1-Pravastatinic acid, KMUP-1-Pravastatinic acid complex]
IC50 [9]: 2.1 µg/mL

Cn1c(=O)c2c(ncn2CCN2CCN(c3ccccc3Cl)CC2)n(C)c1=O [KMUP-1, 7-[2-[4-(2-chlorobenzene)piperazinyl]ethyl]-1,3-dimethylxanthine]
TRAP-positive cell count caused by RANKL (in words) [4]: suppressed the TRAP-positive cell count

KMUP-1-γ-polyglutamate complex [KMUP-1-γ-polyglutamic acid]
Changing % of the lung TGF-β ([3]; 2.5 mg/kg orally): 42 ± 1.6 %
PABP ([8]; 2.5 mg/kg/day p.o.): 11 ± 0.6 mmHg
HDL-C ([1]; 2.5 mg/kg orally): 97.3 ± 1.6 mg/dL
LDL-C ([1]; 2.5 mg/kg orally): 16.5 ± 0.9 mg/dL
TG ([1]; 2.5 mg/kg orally): 78.2 ± 3.6 mg/dL
tot.-C ([1]; 2.5 mg/kg orally): 129.4 ± 1.4 mg/dL

CC(C)c1c(C(=O)Nc2ccccc2)c(-c2ccccc2)c(-c2ccc(F)cc2)n1CC[C@@H](O)C[C@@H](O)CC(=O)O.Cn1c(=O)c2c(ncn2CCN2CCN(c3ccccc3Cl)CC2)n(C)c1=O [KMUP-1-Atorvastatinic acid, KMUP-1-Atorvastatinic acid complex]
TRAP-Positive Cells [4]: 78 ± 3

COc1ccc2c(c1)c(CC(=O)O)c(C)n2C(=O)c1ccc(Cl)cc1.Cn1c(=O)c2c(ncn2CCN2CCN(c3ccccc3Cl)CC2)n(C)c1=O [KMUP-1-Indomethacin, KMUP-1-Indomethacin complex]
The ratio of the antiplatelet aggregation [5]: 92 ± 5.8 %

CC[C@H](C)C(=O)O[C@H]1C[C@@H](C)C=C2C=C[C@H](C)[C@H](CC[C@@H](O)C[C@@H](O)CC(=O)O)[C@H]21.Cn1c(=O)c2c(ncn2CCN2CCN(c3ccccc3Cl)CC2)n(C)c1=O [KMUP-1-Lovastatinic acid, KMUP-1-Lovastatinic acid complex]
TRAP-Positive Cells [4]: 73 ± 6
IC50 [9]: 1.9 µg/mL

CCC(C)(C)C(=O)O[C@H]1C[C@@H](C)C=C2C=C[C@H](C)[C@H](CC[C@@H](O)C[C@@H](O)CC(=O)O)[C@H]21.Cn1c(=O)c2c(ncn2CCN2CCN(c3ccccc3Cl)CC2)n(C)c1=O [KMUP-1-Simvastatinic acid, KMUP-1-Simvastatinic acid complex]
The amount of serum glucose [6]: 117.3 ± 3.8 mg/dL
The amount of serum insulin [6]: 0.85 ± 0.17
Changing % of the lung TGF-β ([3]; 2.5 mg/kg orally): 45 ± 4.5 %
TRAP-Positive Cells [4]: 72 ± 5
PABP ([8]; 2.5 mg/kg/day p.o.): 12 ± 1.3 mmHg
HDL-C ([1]; 5 mg/kg orally): 108.4 ± 1.3 mg/dL
LDL-C ([1]; 5 mg/kg orally): 17.3 ± 1.4 mg/dL
TG ([1]; 5 mg/kg orally): 81.2 ± 4.4 mg/dL
tot.-C ([1]; 5 mg/kg orally): 129.7 ± 1.4 mg/dL
The amount of the serum glucose [10]: 194.2 ± 16.1 mg/dL
growth of the virus (in words) ([9]; in glucose solution): can inhibit the growth of the virus
IC50 [9]: 1.8 µg/mL

CC(C)(Oc1ccc(C(=O)c2ccc(Cl)cc2)cc1)C(=O)O.Cn1c(=O)c2c(ncn2CCN2CCN(c3ccccc3Cl)CC2)n(C)c1=O [KMUP-1-Fibric acid, KMUP-1-fibric acid complex]
HDL-C ([1]; 2.5 mg/kg orally): 98.4 ± 1.3 mg/dL
LDL-C ([1]; 2.5 mg/kg orally): 18.4 ± 2.2 mg/dL
TG ([1]; 2.5 mg/kg orally): 80.2 ± 3.2 mg/dL
tot.-C ([1]; 2.5 mg/kg orally): 132.7 ± 1.3 mg/dL

KMUP-1-PGI2 complex
PABP ([8]; 0.1 mM (inhalation)): 10 ± 0.2 mmHg
